In patent US8029764B2, “Methods for detection of colorectal cancer” (The Johns Hopkins University, priority 2001, dated 2011):

System: colorectal tissue transcripts
Test: SAGE of normal, adenoma and cancer colorectal tissue (transcript tag counts)
Set-up: species or system human
In short: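 Tag counts reflect transcript abundance, each mRNA represented by a 15-base tag near its 3′ end. Excluding MHC tags, linkers and duplicate ditags, libraries were compared statistically: two each of normal epithelium, FAP-derived adenomas (>70% neoplastic) and carcinomas.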

[1] = normal colorectal tissue library 1
[2] = normal colorectal tissue library 2

Sequence | AD1 (SAGE tag count) (SAGE library AD1) | AD2 (SAGE tag count) (SAGE library AD2) | CA1 (SAGE tag count) (SAGE library CA1) | CA2 (SAGE tag count) (SAGE library CA2) | NC1 (SAGE tag count) (SAGE library NC1) | NC2 (SAGE tag count) (SAGE library NC2) | AD1 (SAGE tag count) (adenoma library 1) | AD2 (SAGE tag count) (adenoma library 2) | CA1 (SAGE tag count) (cancer library 1) | CA2 (SAGE tag count) (cancer library 2) | NC1 (SAGE tag count) [1] | NC2 (SAGE tag count) [2]
ATGGTGGGGG (chemistry not fully specified) | 11 | 9 | 1 | 2 | 25 | 30 |  |  |  |  |  | 
GCCGGGTGGG (chemistry not fully specified) | 18 | 24 | 68 | 67 | 207 | 149 |  |  |  |  |  | 
GTGGTTCACG (chemistry not fully specified) | 0 | 0 | 0 | 0 | 4 | 5 | 0 | 0 | 0 | 0 | 4 | 5
CCGGCTTGAG (chemistry not fully specified) | 0 | 0 | 0 | 0 | 7 | 4 |  |  |  |  |  | 
ACCTGGGGAG (chemistry not fully specified) | 1 | 3 | 4 | 3 | 35 | 11 |  |  |  |  |  | 
ATGATGGCAC (chemistry not fully specified; the letters are possibly those of the target site) | 1 | 0 | 1 | 0 | 12 | 32 |  |  |  |  |  | 
AATGAGAAGG (chemistry not fully specified) | 0 | 0 | 1 | 0 | 11 | 3 |  |  |  |  |  | 
CCTGTGACAG (chemistry not fully specified) | 0 | 4 | 3 | 1 | 22 | 27 |  |  |  |  |  | 
GACATCAAGT (chemistry not fully specified) | 23 | 14 | 47 | 17 | 198 | 87 |  |  |  |  |  | 
AGAATAGCTT (chemistry not fully specified) | 3 | 9 | 11 | 30 | 44 | 67 |  |  |  |  |  | 
TCTGAATTAT (chemistry not fully specified) |  |  |  |  |  |  | 0 | 0 | 1 | 0 | 24 | 16
TAAATTGCAA (chemistry not fully specified) |  |  |  |  |  |  | 8 | 17 | 5 | 3 | 103 | 59
CTGACCTGTG (chemistry not fully specified) | 48 | 18 | 16 | 46 | 88 | 130 |  |  |  |  |  | 
GGCTCGGGAT (chemistry not fully specified) | 2 | 4 | 3 | 5 | 15 | 11 |  |  |  |  |  | 
